Test results: ChEMBL document CHEMBL1759873, “Novel thiolactone-isatin hybrids as potential antimalarial and antitubercular agents” (Bioorg Med Chem Lett, 2011)
In brackets after ≈: the same amount, converted by molar mass.

Experiments:
[1] = test system: Plasmodium falciparum; test: Antiplasmodial activity against Plasmodium falciparum W2; assay type: functional, organism-based
[2] = test system: Mycobacterium tuberculosis; test: Antitubercular activity against Mycobacterium tuberculosis H37Rv by microplate alamar blue assay; assay type: functional
[3] = Inhibition of Plasmodium falciparum W2 recombinant falcipain-2
[4] = test system: Mycobacterium tuberculosis; test: Antitubercular activity against Mycobacterium tuberculosis H37Rv by LORA assay; assay type: functional
[5] = test system: Mycobacterium tuberculosis; test: Antitubercular activity against Mycobacterium tuberculosis H37Rv at 1 ug/ml by BACTEC radiometric susceptibility assay; assay type: functional
[6] = test system: Mycobacterium tuberculosis; test: Antitubercular activity against Mycobacterium tuberculosis H37Rv at 10 ug/ml by BACTEC radiometric susceptibility assay; assay type: functional

O=C1C(=O)N(CCCCBr)c2ccc(I)cc21
IC50 [1]: > 20 µM
MIC [2]: 15.5 µM (≈ 6.32 µg/mL)
IC50 [3]: > 100 µM
MIC [4]: 57.1 µM (≈ 23.3 µg/mL)

CC1=C(OCCN2C(=O)C(=O)c3cc(Br)ccc32)C(C)SC1=O (stereo unspecified)
IC50 [1]: 17.4 µM
IC50 [3]: 31.7 µM

CC1=C(OCCN2C(=O)C(=O)c3cc(F)ccc32)C(C)SC1=O (stereo unspecified)
IC50 [1]: > 20 µM
inhibition at 1 µg/mL [5]: -29%
MIC [2]: > 128 µM
inhibition at 10 µg/mL [6]: 22%
IC50 [3]: 89.6 µM

CC1=C(OCCN2C(=O)C(=O)c3cc(I)ccc32)C(C)SC1=O (stereo unspecified)
IC50 [1]: > 20 µM
inhibition at 1 µg/mL [5]: -3.2%
MIC [2]: > 128 µM
inhibition at 10 µg/mL [6]: 42%
IC50 [3]: 17.8 µM

CC1=C(OCCN2C(=O)C(=O)c3cc(C)ccc32)C(C)SC1=O (stereo unspecified)
IC50 [1]: > 20 µM
inhibition at 1 µg/mL [5]: -12%
MIC [2]: > 128 µM
inhibition at 10 µg/mL [6]: 4%
IC50 [3]: > 100 µM

CC1=C(OCCN2C(=O)C(=O)c3ccccc32)C(C)SC1=O (stereo unspecified)
IC50 [1]: > 20 µM
inhibition at 1 µg/mL [5]: 31.7%
MIC [2]: > 128 µM
inhibition at 10 µg/mL [6]: 34.7%
IC50 [3]: 40.2 µM

CC1=C(OCCCN2C(=O)C(=O)c3ccccc32)C(C)SC1=O (stereo unspecified)
IC50 [1]: > 20 µM
inhibition at 1 µg/mL [5]: -18.5%
MIC [2]: > 128 µM
inhibition at 10 µg/mL [6]: 14.9%
IC50 [3]: > 100 µM

CC1=C(OCCCCN2C(=O)C(=O)c3ccccc32)C(C)SC1=O (stereo unspecified)
IC50 [1]: > 20 µM
inhibition at 1 µg/mL [5]: 33.4%
MIC [2]: > 128 µM
inhibition at 10 µg/mL [6]: 42.6%
IC50 [3]: > 100 µM

CC1=C(OCCCCCN2C(=O)C(=O)c3ccccc32)C(C)SC1=O (stereo unspecified)
IC50 [1]: 15.3 µM
inhibition at 1 µg/mL [5]: 34.9%
MIC [2]: > 128 µM
inhibition at 10 µg/mL [6]: 34%
IC50 [3]: 58 µM

CC1=C(OCCCCCCN2C(=O)C(=O)c3ccccc32)C(C)SC1=O (stereo unspecified)
IC50 [1]: 12.3 µM
inhibition at 1 µg/mL [5]: 27.7%
MIC [2]: > 128 µM
inhibition at 10 µg/mL [6]: 36.4%
IC50 [3]: 32 µM

CC1=C2OCCCCN3C(=O)C(O)(c4ccccc43)C2(C)SC1=O (stereo unspecified)
IC50 [1]: > 20 µM
inhibition at 1 µg/mL [5]: 17%
MIC [2]: > 128 µM
inhibition at 10 µg/mL [6]: 18.1%
IC50 [3]: > 100 µM

CC1=C2OCCCCN3C(=O)C(O)(c4cc(Br)ccc43)C2(C)SC1=O (stereo unspecified)
IC50 [1]: > 20 µM
inhibition at 1 µg/mL [5]: -16.2%
MIC [2]: > 128 µM
inhibition at 10 µg/mL [6]: 5.1%
IC50 [3]: > 100 µM

CC1=C2OCCCCN3C(=O)C(O)(c4cc(I)ccc43)C2(C)SC1=O (stereo unspecified)
IC50 [1]: > 20 µM
inhibition at 1 µg/mL [5]: 4.9%
MIC [2]: > 128 µM
inhibition at 10 µg/mL [6]: 19.6%
IC50 [3]: > 100 µM

CC1=C2OCCCCN3C(=O)C(O)(c4cc(F)ccc43)C2(C)SC1=O (stereo unspecified)
IC50 [1]: > 20 µM
inhibition at 1 µg/mL [5]: 4.9%
MIC [2]: > 128 µM
inhibition at 10 µg/mL [6]: 1.3%
IC50 [3]: > 100 µM

CC1=C2OCCCCN3C(=O)C(O)(c4cc(Cl)ccc43)C2(C)SC1=O (stereo unspecified)
IC50 [1]: > 20 µM
inhibition at 1 µg/mL [5]: 13.4%
MIC [2]: > 128 µM
inhibition at 10 µg/mL [6]: 15.3%
IC50 [3]: > 100 µM

CC1=C2OCCCCN3C(=O)C(O)(c4cc(C)ccc43)C2(C)SC1=O (stereo unspecified)
IC50 [1]: > 20 µM
inhibition at 1 µg/mL [5]: -0.6%
MIC [2]: > 128 µM
inhibition at 10 µg/mL [6]: -0.4%
IC50 [3]: > 100 µM

CC1=C2OCCCCN3C(=O)C(O)(c4cc([N+](=O)[O-])ccc43)C2(C)SC1=O (stereo unspecified)
IC50 [1]: > 20 µM
inhibition at 1 µg/mL [5]: -3%
MIC [2]: > 128 µM
inhibition at 10 µg/mL [6]: -5.1%
IC50 [3]: 44.5 µM

CC1=C2OCCCCCN3C(=O)C(O)(c4ccccc43)C2(C)SC1=O (stereo unspecified)
IC50 [1]: > 20 µM
inhibition at 1 µg/mL [5]: 21.9%
MIC [2]: > 128 µM
inhibition at 10 µg/mL [6]: 32.6%
IC50 [3]: > 100 µM

CC1=C2OCCCCCN3C(=O)C(O)(c4cc(Cl)ccc43)C2(C)SC1=O (stereo unspecified)
IC50 [1]: > 20 µM
inhibition at 1 µg/mL [5]: 0%
MIC [2]: > 128 µM
inhibition at 10 µg/mL [6]: -15.2%
IC50 [3]: > 100 µM

CC1=C2OCCCCCN3C(=O)C(O)(c4cc(Br)ccc43)C2(C)SC1=O (stereo unspecified)
IC50 [1]: > 20 µM
inhibition at 1 µg/mL [5]: -26%
MIC [2]: > 128 µM
inhibition at 10 µg/mL [6]: -21.1%
IC50 [3]: 10.1 µM

CC1=C2OCCCCCN3C(=O)C(O)(c4cc(I)ccc43)C2(C)SC1=O (stereo unspecified)
IC50 [1]: > 20 µM
inhibition at 1 µg/mL [5]: -39.7%
MIC [2]: > 128 µM
inhibition at 10 µg/mL [6]: -40.7%
IC50 [3]: > 100 µM

CC1=C2OCCCCCCN3C(=O)C(O)(c4ccccc43)C2(C)SC1=O (stereo unspecified)
IC50 [1]: 11.5 µM
inhibition at 1 µg/mL [5]: 9.4%
MIC [2]: > 128 µM
inhibition at 10 µg/mL [6]: 18.5%
IC50 [3]: > 100 µM

CC1=C2OCCCCCCN3C(=O)C(O)(c4cc(Cl)ccc43)C2(C)SC1=O (stereo unspecified)
IC50 [1]: 7.41 µM
inhibition at 1 µg/mL [5]: -16%
MIC [2]: > 128 µM
inhibition at 10 µg/mL [6]: -20%
IC50 [3]: > 100 µM

CC1=C2OCCCCCCN3C(=O)C(O)(c4cc(F)ccc43)C2(C)SC1=O (stereo unspecified)
IC50 [1]: 14 µM
inhibition at 1 µg/mL [5]: -35%
MIC [2]: > 128 µM
inhibition at 10 µg/mL [6]: -28%
IC50 [3]: > 100 µM

CC1=C2OCCCCCCN3C(=O)C(O)(c4cc(Br)ccc43)C2(C)SC1=O (stereo unspecified)
IC50 [1]: 6.93 µM
inhibition at 1 µg/mL [5]: 8.1%
MIC [2]: > 128 µM
inhibition at 10 µg/mL [6]: -0.5%
IC50 [3]: 83.4 µM

CC1=C2OCCCCCCN3C(=O)C(O)(c4cc(I)ccc43)C2(C)SC1=O (stereo unspecified)
IC50 [1]: 6.92 µM
inhibition at 1 µg/mL [5]: -34%
MIC [2]: > 128 µM
inhibition at 10 µg/mL [6]: -40%
IC50 [3]: 48.3 µM

O=C1C(=O)N(CCCBr)c2ccccc21
IC50 [1]: > 20 µM
MIC [2]: > 128 µM
IC50 [3]: > 100 µM

O=C1C(=O)N(CCCCBr)c2ccccc21
IC50 [1]: > 20 µM
MIC [2]: 96.5 µM (≈ 27.2 µg/mL)
IC50 [3]: > 100 µM
MIC [4]: 28.8 µM (≈ 8.13 µg/mL)

O=C1C(=O)N(CCCCBr)c2ccc(Cl)cc21
IC50 [1]: > 20 µM
MIC [2]: 30.5 µM (≈ 9.66 µg/mL)
IC50 [3]: > 100 µM
MIC [4]: 30.5 µM (≈ 9.66 µg/mL)

O=C1C(=O)N(CCCCBr)c2ccc(Br)cc21
IC50 [1]: > 20 µM
MIC [2]: 30.5 µM (≈ 11 µg/mL)
IC50 [3]: > 100 µM
MIC [4]: 37.7 µM (≈ 13.6 µg/mL)

O=C1C(=O)N(CCCCBr)c2ccc([N+](=O)[O-])cc21
IC50 [1]: > 20 µM
MIC [2]: > 128 µM
IC50 [3]: > 100 µM

O=C1C(=O)N(CCCCCCBr)c2ccc(Cl)cc21
MIC [2]: 29.7 µM (≈ 10.2 µg/mL)
MIC [4]: 31 µM (≈ 10.7 µg/mL)

O=C1C(=O)N(CCCCCCBr)c2ccc(F)cc21
MIC [2]: 62.3 µM (≈ 20.4 µg/mL)
MIC [4]: 31.5 µM (≈ 10.3 µg/mL)

O=C1C(=O)N(CCBr)c2ccccc21
IC50 [1]: > 20 µM
MIC [2]: > 128 µM
IC50 [3]: > 100 µM

CC(C)C[C@H](NC(=O)[C@H]1O[C@@H]1C(=O)O)C(=O)NCCCCN=C(N)N [E-64]
IC50 [3]: 0.0473 µM

NNC(=O)c1ccncc1 [ISONIAZID]
MIC [2]: 0.37 µM (≈ 0.0507 µg/mL)
MIC [4]: > 128 µM

COc1c(N2C[C@@H]3CCCN[C@@H]3C2)c(F)cc2c(=O)c(C(=O)O)cn(C3CC3)c12 [MOXIFLOXACIN]
MIC [2]: 0.29 µM (≈ 0.116 µg/mL)
MIC [4]: 31.1 µM (≈ 12.5 µg/mL)

O=[N+]([O-])c1cn2c(n1)OC[C@@H](OCc1ccc(OC(F)(F)F)cc1)C2 [PRETOMANID]
MIC [2]: 0.16 µM (≈ 0.0575 µg/mL)
MIC [4]: 3.3 µM (≈ 1.19 µg/mL)

CO[C@H]1/C=C/O[C@@]2(C)Oc3c(C)c(O)c4c(O)c(c(/C=N/N5CCN(C)CC5)c(O)c4c3C2=O)NC(=O)/C(C)=C\C=C\[C@H](C)[C@H](O)[C@@H](C)[C@@H](O)[C@@H](C)[C@H](OC(C)=O)[C@@H]1C [RIFAMPIN]
MIC [2]: 0.05 µM (≈ 0.0411 µg/mL)
MIC [4]: 2.4 µM (≈ 1.98 µg/mL)

CN[C@@H]1[C@H](O[C@H]2[C@H](O[C@H]3[C@H](O)[C@@H](O)[C@H](N=C(N)N)[C@@H](O)[C@@H]3N=C(N)N)O[C@@H](C)[C@]2(O)C=O)O[C@@H](CO)[C@H](O)[C@H]1O [STREPTOMYCIN]
MIC [2]: 0.43 µM (≈ 0.25 µg/mL)

C=C/C(C)=C/[C@@]1(C)SC(=O)C(C)=C1O [THIOLACTOMYCIN]
IC50 [1]: > 20 µM
inhibition at 1 µg/mL [5]: -3.8%
MIC [2]: > 128 µM
inhibition at 10 µg/mL [6]: 58.6%
IC50 [3]: > 100 µM

CC1=C(O)SC(C)C1=O (stereo unspecified) [THIOLACTONE]
IC50 [1]: > 20 µM
inhibition at 1 µg/mL [5]: -24.5%
MIC [2]: > 128 µM
inhibition at 10 µg/mL [6]: -32.8%
IC50 [3]: > 100 µM
